Laboratory results taken from patent US20140329753A1, “Angiogenic active lytic peptides” (priority 2013, published 2014).
“Also recorded” adds a separate entry of the source.

Assays:
[1] = test system: angiogenesis; experiment: Matrigel deposit implant test for angiogenic activity (acceleration or inhibition), FGF1-induced; type: in vivo, mice; parameters: key to top score seen in Matrigel deposits: no + sign would yield a value of 0, as in A in FIG. 13; B in FIG. 13 would yield a score of +++; ++++: 0 to 4 plus (+) scale; details: for top score seen in Matrigel deposits: 0 to 4 plus (+) scale, only top level scores of the experiment
From the text: Matrigel deposits were surgically implanted on both sides of 4 mice per treatment yielding a possible 8 samples per treatment. Matrigel is a polymeric substance that appears to be relatively inert in animals and it can serve as a matrix that allows experimentation in vivo on many different difficult-to-study-processes. Prior to implantation, the Matrigel was allowed to imbibe fibroblast growth factor 1 (FGF1). This protein is a powerful inducer of angiogenesis and its presence guarantees that sufficient activity will be observed within the allotted time period of the experiment. Therefore, any inhibition of angiogenesis is likely to be a real phenomenon as the experiment has been set to heavily favor the angiogenic process. Angiogenesis occurs by day 14 and beginning Day 1 (Day 0=day of implantation), mice were injected IP daily with 20 μg of peptide in 100 μl of normal saline. The animals were sacrificed on Day 14, and each Matrigel deposit divided longitudinally and fixed in 10% buffered formalin. One of the halves of each Matrigel deposit was then sectioned. Read-out for this experiment was via histology, with semi-quantitative/qualitative counting of migration of cells and their subsequent assembly of lumenal structures within the Matrigel. This method allows us to observe the full physiologic spectrum of effects, and was useful in delineating trends. […] In FIG. 13, A represents what a section of a Matrigel gel deposit looks like under the microscope soon after surgical implantation. The sample in B is derived from the control at the conclusion of the experiment. Intense activity is present with numerous cells attaching to the surface of the Matrigel. Cells begin to penetrate the deposit and organize into discrete structures that coalesce to form the beginning of tubes twisting and branching in many directions. These venules eventually connect with the system carrying blood and it is possible to see red cells and lymphocytes within them. This process is called “arborization”, derived from the fact that the angiogenic process most closely resembles the growth of roots and branches of trees. All but two of the peptide treatments looked, more or less, like B (all the peptides of Table 1 were tested). In C, a typical sample from the peptide C-1 (SEQ ID NO: 24) treatment is shown. […] Consequently, there were far fewer cells and cellular structures inside of the Matrigel. […] There were large regions of Matrigel that had no visibly associated structures and few single cells, including on the periphery, while other regions had some limited activity.
This system ranks each sample using a 0 to 4 plus (+) scale. Thus, B in FIG. 13 would yield a score of +++ while no + sign would yield a value of 0, as in A in FIG. 13. In Table 3 the data is modified to a numerical form and plotted averages are shown.

[2] = test system: arthritis; experiment: Treatment of a patient with arthritis (x-ray of ankle joints); type: in vivo; details: 10 mg subcutaneous once a week for one month, then once a month
Description: A patient with arthritis was treated by subcutaneous injection of 10 mg once a week for one month and then once a month for maintenance doses. A visible indication of arthritis is calcification of joints.

[3] = test system: Feline Immunodeficiency virus FIV; experiment: Peptide treatment of a lion infected with FIV (CD4+/CD8+ cell counts); type: in vivo; details: weekly 70 mg I.M injections
From the text: Nasty is a male lion in North Carolina Zoological Park. He was diagnosed to suffer Feline Immunodeficiency virus FIV. FIV attacks the immune system of cats, much like the human immunodeficiency virus (HIV) attacks the immune system of human beings. FIV infects many cell types in its host, including CD4+ and CD8+T lymphocytes, B lymphocytes, and macrophages. FIV eventually leads to debilitation of the immune system in its feline hosts by the infection and exhaustion of T-helper (CD4+) cells.
Nasty was treated weekly with 70 mg I.M injections of JC15-10N.

[4] = test system: tumors; experiment: In vivo anti-tumor activity of injected peptide in animal tumor models
[5] = mice, 20 μg peptide IP daily, Day 14 histology

Sequence: FAKKFAKFAF [JC15-10C]
- angiogenic / anti-angiogenic activity in Matrigel deposits (in words) [1, 5]: inactive

Sequence: FAKKFAKKFKKF [JC15-12N]
- top score seen in Matrigel deposits [1]: ++++
- angiogenic / anti-angiogenic activity in Matrigel deposits (in words) [1, 5]: levels of activity higher than the control; also recorded: cannot exert an anti-angiogenic effect; also recorded: does not inhibit angiogenesis

Sequence: KKFKKFAKKFAKFAF [JC15-15C]
- top score seen in Matrigel deposits [1]: ++++
- angiogenic / anti-angiogenic activity in Matrigel deposits (in words) [1, 5]: levels of activity higher than the control; also recorded: cannot exert an anti-angiogenic effect

Sequence: FAKKFAKKFK [JC15-10N]
- angiogenic / anti-angiogenic activity in Matrigel deposits (in words) [1, 5]: possesses anti-angiogenic activity
- calcification of the ankle joints [2]: disappeared
- absolute CD4+ cell counts [3]: stabilized the CD4+ cell counts
- absolute CD8+ cell counts [3]: the cell counts began to rise

Sequence: IVRRADRAAVPIVNLKDELL [C-1]
- angiogenic / anti-angiogenic activity in Matrigel deposits (in words) [1, 5]: far fewer cellular associations; also recorded: possess anti-angiogenic activity

Sequence: FAKKFAKKFKKFAKKFAK [JC15-18N]
- angiogenic / anti-angiogenic activity in Matrigel deposits (in words) [1, 5]: levels of activity higher than the control; also recorded: cannot exert an anti-angiogenic effect

Sequence: FAKKFAKKFKKFAKKFAKFAFAF [JC15]
- % Diff. ([1]; difference of mean score from Control (2.50)): 4.00%
- angiogenic activity score, Mean ([1]; mean of samples, mice, 20 μg peptide IP daily, Day 14, 0 to 4 plus scale): 2.60
- angiogenic / anti-angiogenic activity in Matrigel deposits (in words) [1, 5]: closer to the control; also recorded: cannot exert an anti-angiogenic effect
- angiogenic activity score, Sample 1 ([1]; mice, FGF1-imbibed Matrigel, 20 μg peptide IP daily, Day 14 histology, 0 to 4 plus scale, sample 1): 3
- angiogenic activity score, Sample 2 ([1]; mice, FGF1-imbibed Matrigel, 20 μg peptide IP daily, Day 14 histology, 0 to 4 plus scale, sample 2): 2
- angiogenic activity score, Sample 3 ([1]; mice, FGF1-imbibed Matrigel, 20 μg peptide IP daily, Day 14 histology, 0 to 4 plus scale, sample 3): 3
- angiogenic activity score, Sample 4 ([1]; mice, FGF1-imbibed Matrigel, 20 μg peptide IP daily, Day 14 histology, 0 to 4 plus scale, sample 4): 2
- angiogenic activity score, Sample 5 ([1]; mice, FGF1-imbibed Matrigel, 20 μg peptide IP daily, Day 14 histology, 0 to 4 plus scale, sample 5): 3
- effect on tumors, peptide injected directly into the tumor ([4]; a few injections over a period of several days): tumors are permanently eliminated
- effect on tumors, peptide injected in a site removed from the tumor ([4]; systemic activity, several animal tumor models, in some cases little activity): most of the tumors also disappeared
